Data: PMC3807862 (Journal of medicinal chemistry, 2013)
Blank lines part the entries; values can stand above or below the molecule they belong to.

How the values were obtained:
[1] = molecular target: T1, Human neutrophil elastase (HNE) (Homo sapiens, UniProt P08246); assay: HNE inhibition assay; assay type: biochemical
T1 sequence (P08246 30-267): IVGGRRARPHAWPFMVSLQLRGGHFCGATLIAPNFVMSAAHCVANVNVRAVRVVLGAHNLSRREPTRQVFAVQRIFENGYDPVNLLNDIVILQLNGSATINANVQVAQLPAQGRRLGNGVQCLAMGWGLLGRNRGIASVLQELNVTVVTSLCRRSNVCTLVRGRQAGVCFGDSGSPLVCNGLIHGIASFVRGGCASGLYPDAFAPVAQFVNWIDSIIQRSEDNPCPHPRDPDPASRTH

[2] = molecular target: T2, HNE (Homo sapiens, UniProt P08246); assay: HNE inhibition over time; assay type: biochemical; conditions: for period of maximal HNE inhibition (during the first x h): 5 μM compound; for time to recovery of HNE activity after treatment: up to 5 μM compound
T2 sequence (P08246 30-267): T1 sequence (P08246 30-267)

[3] = molecular target: human plasma kallikrein (Homo sapiens, UniProt P03952); assay: Kallikrein inhibition; assay type: biochemical
Chain of human plasma kallikrein (P03952 20-638): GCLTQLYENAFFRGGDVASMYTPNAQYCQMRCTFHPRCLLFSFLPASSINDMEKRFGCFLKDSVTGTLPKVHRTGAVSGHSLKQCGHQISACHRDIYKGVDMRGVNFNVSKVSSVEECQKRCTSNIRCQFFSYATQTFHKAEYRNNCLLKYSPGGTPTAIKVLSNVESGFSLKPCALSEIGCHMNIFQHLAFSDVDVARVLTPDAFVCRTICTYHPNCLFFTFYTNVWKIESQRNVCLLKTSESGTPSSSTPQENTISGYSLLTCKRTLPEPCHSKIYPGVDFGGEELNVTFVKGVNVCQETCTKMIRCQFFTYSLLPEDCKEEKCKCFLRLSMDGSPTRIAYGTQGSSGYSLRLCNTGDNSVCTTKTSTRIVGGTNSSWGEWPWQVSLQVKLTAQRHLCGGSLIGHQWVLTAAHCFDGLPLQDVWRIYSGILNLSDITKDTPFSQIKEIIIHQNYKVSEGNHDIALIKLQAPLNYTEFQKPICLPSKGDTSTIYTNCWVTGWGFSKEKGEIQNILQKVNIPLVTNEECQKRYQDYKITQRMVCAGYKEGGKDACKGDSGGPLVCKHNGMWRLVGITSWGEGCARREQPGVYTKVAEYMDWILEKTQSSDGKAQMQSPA

[4] = test system: human pancreas chymotrypsin; assay: Chymotrypsin inhibition; assay type: biochemical
[5] = molecular target: human urine urokinase (Homo sapiens, UniProt P00749); assay: Urokinase inhibition; assay type: biochemical
[6] = Spontaneous hydrolysis in aqueous buffer; assay type: physicochemical; conditions: 20 μM
[7] = molecular target: human plasma thrombin (Homo sapiens, UniProt P00734); assay: Thrombin inhibition; assay type: biochemical

SMILES: COC(=O)c1nn(C(=O)c2cccc(C)c2)c2ccc([N+](=O)[O-])cc12 [Compound 14b, 1-(3-Methylbenzoyl)-5-nitro-1H-indazole-3-carboxylic Acid Methyl Ester]
period of maximal HNE inhibition (during the first x h) [2]: 4 h

SMILES: COC(=O)c1nn(C(=O)c2ccccc2)c2ccc([N+](=O)[O-])cc12 [Compound 14a, 1-Benzoyl-5-nitro-1H-indazole-3-carboxylic Acid Methyl Ester]
kallikrein inhibition (in words) [3]: inhibited kallikrein
time to recovery of HNE activity after treatment [2]: 1 to 2 h

SMILES: Cc1cccc(C(=O)n2nc(C#N)c3ccccc32)c1 [Compound 5b, 1-(3-Methylbenzoyl)-1H-indazole-3-carbonitrile]
time after which compound was hydrolyzed almost completely [6]: 35 min
thrombin inhibition (in words) [7]: at micromolar concentrations
urokinase inhibition (in words) [5]: at micromolar concentrations

SMILES: CCOC(=O)c1nn(C(=O)c2ccsc2)c2ccc([N+](=O)[O-])cc12 [Compound 14h, 5-Nitro-1-(thiophene-3-carbonyl)-1H-indazole-3-carboxylic Acid Ethyl Ester]
time to recovery of HNE activity after treatment [2]: 1 to 2 h

SMILES: COC(=O)c1nn(C(=O)c2cccc(C)c2)c2c([N+](=O)[O-])cccc12 [Compound 16, 1-(3-Methylbenzoyl)-7-nitro-1H-indazole-3-carboxylic Acid Methyl Ester]
HNE inhibitory activity (in words) [1]: inactive

SMILES: COC(=O)c1nn(C(=O)c2cccc(C)c2)c2cc([N+](=O)[O-])ccc12 [Compound 15, 1-(3-Methylbenzoyl)-6-nitro-1H-indazole-3-carboxylic Acid Methyl Ester]
period of maximal HNE inhibition (during the first x h) [2]: 4 h

Further lines, with some results ahead:

increase of HNE inhibitory activity compared to the reference compounds A and F [1]: 2-3 fold
SMILES: CCOC(=O)c1nn(C(=O)c2cccc(C)c2)c2ccc(OC(F)(F)F)cc12 [Compound 31g, 1-(3-Methylbenzoyl)-5-trifluoromethoxy-1H-indazole-3-carboxylic Acid Ethyl Ester]

period of maximal HNE inhibition (during the first x h) [2]: 4 h
SMILES: CCOC(=O)c1nn(C(=O)c2cccc(C)c2)c2ccc(NC(C)=O)cc12 [Compound 20a, 5-Acetylamino-1-(3-methylbenzoyl)-1H-indazole-3-carboxylic Acid Ethyl Ester]

IC50 [1]: ~10 nM
period of maximal HNE inhibition (during the first x h) [2]: 5 h
urokinase inhibition (in words) [5]: no inhibitory activity
SMILES: CCOC(=O)c1nn(C(=O)c2cccc(C)c2)c2ccc(NC(=O)C3CC3)cc12 [Compound 20f, 5-(Cyclopropanecarbonylamino)-1-(3-methylbenzoyl)-1H-indazole-3-carboxylic Acid Ethyl Ester]
chymotrypsin inhibition (in words) [4]: lowest activity for this enzyme

increase of HNE inhibitory activity compared to the reference compounds A and F [1]: 2-3 fold
SMILES: CCOC(=O)c1nn(C(=O)c2ccccc2)c2ccc(OC)cc12 [Compound 31d, 1-Benzoyl-5-methoxy-1H-indazole-3-carboxylic Acid Ethyl Ester]
